# Key:
# Coagulation factor X = Coagulation factor X (Homo sapiens, UniProt P00742)
# Description: Inhibition of human coagulation factor 10a
# Coagulation factor IX = Coagulation factor IX (Homo sapiens, UniProt P00740)
# [1] = Apparent permeability of the compound at 5 uM after 5 hrs by PAMPA; format: physicochemical
# [2] = Unbound plasma concentration in human at 10 uM measured after 4 hrs by equilibrium dialysis method; format: ADME, cell-free
# Plasma = experiment: Anticoagulant activity in human plasma assessed as concentration required to double activated partial thromboplastin time; format: functional
# [3] = Cmax in rat at 1 mg/kg, po administered as cassette dose; format: ADME, organism-based; set-up: dose 1 mg/kg, route oral; settings: in vivo
# Chain of Coagulation factor X (P00742 41-179 limits assumed): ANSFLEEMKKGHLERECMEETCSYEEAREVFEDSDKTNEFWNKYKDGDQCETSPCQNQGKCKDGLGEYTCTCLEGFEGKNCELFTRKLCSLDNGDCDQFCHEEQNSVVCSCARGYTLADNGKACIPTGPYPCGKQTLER
# Chain of Coagulation factor X (P00742 235-488 limits assumed): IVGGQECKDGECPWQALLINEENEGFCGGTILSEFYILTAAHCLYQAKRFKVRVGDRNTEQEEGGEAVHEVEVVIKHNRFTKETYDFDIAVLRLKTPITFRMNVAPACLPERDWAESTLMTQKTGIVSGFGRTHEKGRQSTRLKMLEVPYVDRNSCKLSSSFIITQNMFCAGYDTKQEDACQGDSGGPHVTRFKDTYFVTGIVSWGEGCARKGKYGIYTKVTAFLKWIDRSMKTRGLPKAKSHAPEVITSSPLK
# Chain of Coagulation factor IX (P00740 47-191 limits assumed): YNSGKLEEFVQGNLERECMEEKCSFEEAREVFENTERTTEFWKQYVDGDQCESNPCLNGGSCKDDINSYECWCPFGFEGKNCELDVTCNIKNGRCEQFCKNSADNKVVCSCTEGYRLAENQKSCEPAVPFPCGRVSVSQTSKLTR
# Chain of Coagulation factor IX (P00740 227-461 limits assumed): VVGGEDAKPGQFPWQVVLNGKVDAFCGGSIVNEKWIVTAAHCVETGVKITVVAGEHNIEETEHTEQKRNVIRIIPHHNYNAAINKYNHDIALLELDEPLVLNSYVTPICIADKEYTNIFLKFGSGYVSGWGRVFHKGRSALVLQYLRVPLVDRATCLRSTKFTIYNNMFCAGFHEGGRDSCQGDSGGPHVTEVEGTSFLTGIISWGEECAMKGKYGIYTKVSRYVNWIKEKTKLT
Compound,IC50 (Coagulation factor X) [nM],IC50 (Coagulation factor IX) [nM],"Papp at 5 h, 5 µM [1] [×10⁻⁶ cm/s]","fraction unbound at 4 h, 10 µM [2]",Cmax [3] [ng/mL],2aPTT (Plasma) [µM]
Nc1noc2c(N3CC[C@@H](NC(=O)c4ccc(-n5cnnc5)cc4Cl)C3)ccc(F)c12,> 100000,172,,,,
Cn1ncn(-c2ccc(C(=O)N[C@@H]3CCN(c4ncc(Cl)c5c(N)noc45)C3)c(Cl)c2)c1=O,> 100000,15,10.3,0.016,390,13
Cc1ccc(N2CCC(C)(NC(=O)c3ccc(-n4cnnc4)cc3Cl)C2)c([N+](=O)[O-])c1 (stereo not given),> 100000,2200,,,,
Nc1noc2c(N3CC[C@@H](NC(=O)c4ccc(-n5cnnc5C(F)F)cc4Cl)C3)ncc(Cl)c12,> 100000,45,2.7,0.012,100,32
Cc1cc2c(N)noc2c(N2CC[C@@H](NC(=O)c3ccc(-n4cnnc4)cc3Cl)C2)n1,> 100000,41,,,,
Nc1noc2c(N3CC[C@@H](NC(=O)c4ccc(-n5cnc6ccccc65)cc4Cl)C3)ncc(Cl)c12,> 100000,32,3.3,0.001,110,72
Nc1noc2c(N3CCC(NC(=O)c4ccc(-n5cnnc5)cc4Cl)C3)cccc12 (racemic),> 100000,98,,,,

# The next lines start with results.
IC50 (Coagulation factor X) [nM],IC50 (Coagulation factor IX) [nM],"Papp at 5 h, 5 µM [1] [×10⁻⁶ cm/s]","fraction unbound at 4 h, 10 µM [2]",Cmax [3] [ng/mL],Compound,2aPTT (Plasma) [µM]
> 100000,89,,,,Nc1noc2c(N3CCC(NC(=O)c4ccc(-n5cnnc5)cc4Cl)C3)nccc12 (racemic),
26000,36,0.7,0.017,,Cn1cc(-c2ccc(C(=O)N[C@@H]3CCN(c4ncc(Cl)c5c(N)noc45)C3)c(Cl)c2)cnc1=O,47
> 100000,33,11.6,0.002,330,Cc1ncn(-c2ccc(C(=O)N[C@@H]3CCN(c4ncc(Cl)c5c(N)noc45)C3)c(Cl)c2)n1,113
20000,18,6.5,0.004,510,Cn1cc(-c2ccc(C(=O)N[C@@H]3CCN(c4ncc(Cl)c5c(N)noc45)C3)c(Cl)c2)ccc1=O,85

# Source: ChEMBL document CHEMBL4017471, “Discovery of novel aminobenzisoxazole derivatives as orally available factor IXa inhibitors” (Bioorg Med Chem Lett, 2017)
